# Assay results from US4122077A, “Somatostatin analogs” (American Home Products Corporation, priority 1977, dated 1978).
# “And” between values parts separate entries of the source, which are not always exact repeats. Equal values may be shown once. Where a SMILES comes first, the peptide text is derived from it. Bridges are numbered along the chain shown (N, C = ends). [ ]: non-standard residue; d: D form.
# Assays:
# [1] = test system: growth hormone (GH); experiment: Suppression of growth hormone (duration of activity after sc injection); assay type: in vivo, rats
# Method: A subcutaneous (sc) injection of peptide solubilized or suspended in physiological saline, is given to Charles River CD® nonfasted male rats. Matched saline control solution sc injected rats serve as control animals so that every experimental rat is paired with a control rat. The rats are kept in separate cages and 20 minutes before the end of the test time period they are given an intraperitoneal (i.p.) injection of Nembutal® at a dose of 50 mg/kg. Blood samples are obtained by cardiac puncture and the plasma separated for the radioimmunoassay of growth hormone (GH) concentration (ng/ml.). Time periods after injection of 2, 4, 5, and 6 hours are generally used to test the duration of the activity of the peptide to suppress circulating peripheral GH levels. Comparisons between control and experimental GH values at each time are evaluated by the Student "t" test and statistical significance (p) at the 0.05 level or lower is used as the index of activity.
# [2] = test system: growth hormone; experiment: Suppression of growth hormone, glucagon and insulin (arginine-stimulated, nembutal rats): GH; assay type: in vivo
# Method: (§1) Albino male rats are arranged in three groups (nine rats/group) and injected i.p. with nembutal at 50mg/kg. 15 minutes after the nembutal injection they are injected s.c. according to group with (a) test compound, typically 10-2000 μg/kg.; (b) SRIF 200 μg/kg.; or (c) physiological saline. 10 minutes later 0.5 ml. of arginine (300 mg/ml., pH 7.2) is injected into the heart. The rats are decapitated 5 minutes after receiving the arginine, and the blood is collected into Trasylol-EDTA. Appropriate aliquots are then assayed for growth hormone, glucagon and insulin. […] Comparisons between control and experimental values are statistically evaluated by the analysis of variants method and statistical significance (p) at 0.05 or lower is used as the index of activity.
# [3] = test system: insulin; experiment: Suppression of growth hormone, glucagon and insulin (arginine-stimulated, nembutal rats): insulin; assay type: in vivo; settings: arginine challenge
# Method: as §1
# [4] = test system: glucagon; experiment: Suppression of growth hormone, glucagon and insulin (arginine-stimulated, nembutal rats): glucagon; assay type: in vivo; settings: arginine challenge
# Method: as §1
# [5] = 200 μg/kg. s.c., arginine challenge (table 5)
# [6] = 100 μg/kg. s.c., arginine challenge (table 5)
Compound,Insulin ([3]; 100 μg/kg. s.c.),Insulin ([3]; 200 μg/kg. s.c.),Glucagon ([4]; 100 μg/kg. s.c.),Glucagon ([4]; 200 μg/kg. s.c.),"GH, 2 Hours ([1]; 1000 μg/kg. sc, rats)","GH, 4 Hours ([1]; 1000 μg/kg. sc, rats)","GH [2, 6]",further results
"C[C@@H](O)[C@@H]1NC(=O)[C@H](Cc2ccccc2)NC(=O)[C@H]([C@@H](C)O)NC(=O)[C@H](CCCCN)NC(=O)[C@@H](Cc2c[nH]c3ccccc23)NC(=O)[C@H](Cc2ccccc2)NC(=O)[C@H](Cc2ccccc2)NC(=O)[C@@H](Cc2c[nH]c3ccccc23)NC(=O)[C@@H](Cc2ccc(O)cc2)NC(=O)[C@@H](N)CSSC[C@@H](C(=O)O)NC(=O)[C@H](CO)NC1=O [B, L-Cysteinyl-D-Tyrosyl-D-Tryptophyl-L-Phenylalanyl-L-Phenylalanyl-D-Tryptophyl-L-Lysyl-L-Threonyl-L-Phenylalanyl-L-Threonyl-L-Seryl-L-Cysteine Cyclic (1-12)-Disulfide] (H-C[dY][dW]FF[dW]KTFTSC-OH; disulfide 1-12)",170 ± 15 μU/ml.,239 ± 17 μU/ml.,5 ± 1 pg/mL,44 ± 9 pg/mL,–,–,–,"plasma growth hormone (GH) concentration, 2 Hr. ([1]; 1 mg/kg. sc, nonfasted male rats, 2 Hr. after injection): 111 ± 14 ng/mL; plasma growth hormone (GH) concentration, 4 Hr. ([1]; 1 mg/kg. sc, nonfasted male rats, 4 Hr. after injection): 67 ± 14 ng/mL; plasma growth hormone (GH) concentration, 5 Hr. ([1]; 1 mg/kg. sc, nonfasted male rats, 5 Hr. after injection): 151 ± 18 ng/mL; plasma growth hormone (GH) concentration, 2 Hr. (second column headed 2 Hr.) ([1]; 1 mg/kg. sc, nonfasted male rats, second 2 Hr. column of table 3): 133 ± 34 ng/mL; GH ([2]; 10 μg/kg. s.c., 15 minutes after dose, arginine challenge): 125 ± 26 ng/mL; GH ([2]; 100 μg/kg. s.c., 15 minutes after dose, arginine challenge): 43 ± 7 ng/mL; GH ([2]; 500 μg/kg. s.c., 15 minutes after dose, arginine challenge): 38 ± 6 ng/mL; Insulin ([3]; 10 μg/kg. s.c.): 162 ± 13 μU/ml.; Insulin ([3]; 300 μg/kg. s.c.): 153 ± 9 μU/ml.; Insulin ([3]; 500 μg/kg. s.c.): 116 ± 8 μU/ml.; Glucagon ([4]; 10 μg/kg. s.c.): 36 ± 4 pg/mL; Glucagon ([4]; 300 μg/kg. s.c.): 38 ± 8 pg/mL; Glucagon ([4]; 500 μg/kg. s.c.): 18 ± 4 pg/mL"
"C[C@@H](O)[C@@H]1NC(=O)[C@H](Cc2ccccc2)NC(=O)[C@H]([C@@H](C)O)NC(=O)[C@H](CCCCN)NC(=O)[C@@H](Cc2c[nH]c3ccccc23)NC(=O)[C@H](Cc2ccccc2)NC(=O)[C@H](Cc2ccccc2)NC(=O)[C@@H](Cc2ccc(O)cc2)NC(=O)[C@@H](Cc2c[nH]cn2)NC(=O)[C@@H](N)CSSC[C@@H](C(=O)O)NC(=O)[C@H](CO)NC1=O [C, L-Cysteinyl-D-Histidyl-D-Tyrosyl-L-Phenylalanyl-L-Phenylalanyl-D-Tryptophyl-L-Lysyl-L-Threonyl-L-Phenylalanyl-L-Threonyl-L-Seryl-L-Cysteine Cyclic (1-12)-Disulfide] (H-C[dH][dY]FF[dW]KTFTSC-OH; disulfide 1-12)",–,254 ± 31 μU/ml. and 273 ± 36 μU/ml.,–,–,34 ± 1 ng/mL,33 ± 2 ng/mL,–,"GH, 5 Hours ([1]; 1000 μg/kg. sc, rats): 51 ± 8 ng/mL; GH, 6 Hours ([1]; 1000 μg/kg. sc, rats): 36 ± 3 ng/mL; GH, 7 Hours ([1]; 1000 μg/kg. sc, rats, 7 hours): 37 ± 5 ng/mL; GH, 8 Hours ([1]; 1000 μg/kg. sc, rats, 8 hours): 37 ± 6 ng/mL; GH ([2]; 10 μg/kg. s.c., arginine challenge (table 5)): 149 ± 23; Insulin ([3]; 10 μg/kg. s.c.): 252 ± 41 μU/ml.; Glucagon ([4]; 10 μg/kg. s.c.): 165 ± 13 pg/mL"
"C[C@@H](O)[C@@H]1NC(=O)[C@H](CCCCN)NC(=O)[C@@H](Cc2c[nH]c3ccccc23)NC(=O)[C@H](Cc2ccccc2)NC(=O)[C@H](Cc2ccccc2)NC(=O)[C@@H](Cc2c[nH]c3ccccc23)NC(=O)[C@@H](Cc2ccc(O)cc2)NC(=O)[C@@H](N)CSSC[C@H](C(=O)O)NC(=O)[C@H](CO)NC(=O)[C@H]([C@@H](C)O)NC(=O)[C@H](Cc2ccccc2)NC1=O [Compound I, L-Cysteinyl-D-Tyrosyl-D-Tryptophyl-L-Phenylalanyl-L-Phenylalanyl-D-Tryptophyl-L-Lysyl-L-Threonyl-L-Phenylalanyl-L-Threonyl-L-Seryl-D-Cysteine Cyclic (1-12)-Disulfide] (H-C[dY][dW]FF[dW]KTFTS[dC]-OH; disulfide 1-12)",–,236 ± 27 μU/ml.,–,13 ± 2 pg/mL,49 ± 5 ng/mL,86 ± 11 ng/mL,–,"GH [2, 5]: 57 ± 14"
"C[C@@H](O)[C@@H]1NC(=O)[C@H](Cc2ccccc2)NC(=O)[C@H]([C@@H](C)O)NC(=O)[C@H](CCCCN)NC(=O)[C@@H](Cc2c[nH]c3ccccc23)NC(=O)[C@H](Cc2ccccc2)NC(=O)[C@H](Cc2ccccc2)NC(=O)[C@@H](Cc2c[nH]c3ccccc23)NC(=O)[C@@H](CCCNC(=N)N)NC(=O)[C@@H](N)CSSC[C@@H](C(=O)O)NC(=O)[C@H](CO)NC1=O [D, L-Cysteinyl-D-Arginyl-D-Tryptophyl-L-Phenylalanyl-L-Phenylalanyl-D-Tryptophyl-L-Lysyl-L-Threonyl-L-Phenylalanyl-L-Threonyl-L-Seryl-L-Cysteine Cyclic (1-12)-Disulfide] (H-C[dR][dW]FF[dW]KTFTSC-OH; disulfide 1-12)",35 ± 2 μU/ml.,–,53 ± 9 pg/mL,–,28 ± 3 ng/mL,11 ± 2 ng/mL,21 ± 2,–
"C[C@@H](O)[C@@H]1NC(=O)[C@H](Cc2ccccc2)NC(=O)[C@H]([C@@H](C)O)NC(=O)[C@H](CCCCN)NC(=O)[C@@H](Cc2c[nH]c3ccccc23)NC(=O)[C@H](Cc2ccccc2)NC(=O)[C@H](Cc2ccccc2)NC(=O)[C@@H](Cc2c[nH]cn2)NC(=O)[C@@H](Cc2c[nH]cn2)NC(=O)[C@@H](N)CSSC[C@@H](C(=O)O)NC(=O)[C@H](CO)NC1=O [E, L-Cysteinyl-D-Histidyl-D-Histidyl-L-Phenylalanyl-L-Phenylalanyl-D-Tryptophyl-L-Lysyl-L-Threonyl-L-Phenylalanyl-L-Threonyl-L-Seryl-L-Cysteine Cyclic (1-12)-Disulfide] (H-C[dH][dH]FF[dW]KTFTSC-OH; disulfide 1-12)",–,182 ± 18 μU/ml.,–,29 ± 12 pg/mL,36 ± 16 ng/mL,45 ± 10 ng/mL,–,"GH [2, 5]: 34 ± 3"
"C[C@@H](O)[C@@H]1NC(=O)[C@H](CCCCN)NC(=O)[C@@H](Cc2c[nH]c3ccccc23)NC(=O)[C@H](Cc2ccccc2)NC(=O)[C@H](Cc2ccccc2)NC(=O)[C@@H](CCCNC(=N)N)NC(=O)[C@@H](Cc2ccc(O)cc2)NC(=O)[C@@H](N)CSSC[C@H](C(=O)O)NC(=O)[C@H](CO)NC(=O)[C@H]([C@@H](C)O)NC(=O)[C@H](Cc2ccccc2)NC1=O [F, L-Cysteinyl-D-Tryrosyl-D-Arginyl-L-Phenylalanyl-L-Phenylalanyl-D-Tryptophyl-L-Lysyl-L-Threonyl-L-Phenylalanyl-L-Threonyl-L-Seryl-D-Cysteine Cyclic (1-12)-Disulfide] (H-C[dY][dR]FF[dW]KTFTS[dC]-OH; disulfide 1-12)",103 ± 24 μU/ml.,–,24 ± 5 pg/mL,–,113 ± 34 ng/mL,99 ± 11 ng/mL,11 ± 3,–
"CC(C)C[C@H]1NC(=O)[C@@H](N)CSSC[C@@H](C(=O)O)NC(=O)[C@H](CO)NC(=O)[C@H]([C@@H](C)O)NC(=O)[C@H](Cc2ccccc2)NC(=O)[C@H]([C@@H](C)O)NC(=O)[C@H](CCCCN)NC(=O)[C@@H](Cc2c[nH]c3ccccc23)NC(=O)[C@H](Cc2ccccc2)NC(=O)[C@H](Cc2ccccc2)NC(=O)[C@@H](Cc2ccc(O)cc2)NC1=O [G, L-Cysteinyl-D-Leucyl-D-Tyrosyl-L-Phenylalanyl-L-Phenylalanyl-D-Trypotophyl-L-Lysyl-L-Threonyl-L-Phenylalanyl-L-Threonyl-L-Seryl-L-Cysteine Cyclic (1-12)-Disulfide] (H-C[dL][dY]FF[dW]KTFTSC-OH; disulfide 1-12)",218 ± 44 μU/ml.,–,28 ± 16 pg/mL,–,84 ± 11 ng/mL,94 ± 23 ng/mL,29 ± 16,"GH, 5 Hours ([1]; 1000 μg/kg. sc, rats): 93 ± 30 ng/mL; GH, 6 Hours ([1]; 1000 μg/kg. sc, rats): 72 ± 68 ng/mL"
"C[C@@H](O)[C@@H]1NC(=O)[C@H](CCCCN)NC(=O)[C@@H](Cc2c[nH]c3ccccc23)NC(=O)[C@H](Cc2ccccc2)NC(=O)[C@H](Cc2ccccc2)NC(=O)[C@@H](Cc2ccc(O)cc2)NC(=O)[C@@H](CCCNC(=N)N)NC(=O)[C@@H](N)CSSC[C@H](C(=O)O)NC(=O)[C@H](CO)NC(=O)[C@H]([C@@H](C)O)NC(=O)[C@H](Cc2ccccc2)NC1=O [H, L-Cysteinyl-D-Arginyl-D-Tyrosyl-L-Phenylalanyl-L-Phenylalanyl-D-Tryptophyl-L-Lysyl-L-Threonyl-L-Phenylalanyl-L-Threonyl-L-Seryl-D-Cysteine Cyclic (1-12)-Disulfide] (H-C[dR][dY]FF[dW]KTFTS[dC]-OH; disulfide 1-12)",–,–,–,–,75 ± 4 ng/mL,144 ± 21 ng/mL,–,"GH ([2]; 25 μg/kg. s.c., arginine challenge (table 5)): 23 ± 4; Insulin ([3]; 25 μg/kg. s.c.): 128 ± 11 μU/ml.; Glucagon ([4]; 25 μg/kg. s.c.): 56 ± 6 pg/mL"
